# Test results published in patent publication US12493025B2, “Microfluidic device and method of preparing a cell model for disease associated with cancer” (City University of Hong Kong, priority 2020, dated 2025).
# Like-named read-outs stand apart in the source and are kept apart here.
# Legend:
# [1] = test system: uropathogenic E. coli strain UTI89; test: MIC of ciprofloxacin; type: cell-based, Escherichia coli
# [2] = test system: UMUC-3 bladder cancer cells; test: Cancer cell viability in clusters co-cultured with UTI89 (CT and CL models), Calcein-AM/Hoechst; doxorubicin dose-response; type: cell-based, human; conditions: for IC50: Homo sapiens, UMUC3, MOI 1:1, concentration giving 50% cell viability
# Method: For CT models, bacterial suspension was centrifuged for 10,000 rpm for 5 min, and the supernatant was removed and replaced with MEM-α (10% supplemented with FBS, no added penicillin-streptomycin) at final dilutions at the rate of 500:1, 100:1, and 1:1 (bacteria:cell). After seeding and incubating for 24 h, the UMUC-3 cell clusters in the microchannels were stained using Hoechst dye for 30 minutes at 37° C. before infection. After original media with dye in channels was gently removed, the diluted bacterial suspension was added into 9 channels separately, three channels per concentration. The corresponding control group of the two models was obtained at time points before the introduction of bacteria.
# As for CL models, bacteria suspended in MEM a and UMUC-3 cells (no added penicillin-streptomycin) were mixed before seeding at the rate of 500:1, 100:1, and 1:1. The device was incubated at 37° C. with 5% CO2 and in situ imaging and analyzing at 1 h, 9 h, and 24 h, respectively. Besides, an isolated channel only with 24 h cultured UMUC-3 was set as a negative control to indicate the beginning of the infection.
# For fluorescent staining analysis, the nuclear dye Hoechst (Life Technologies) and Calcein-AM (Invitrogen) were added into cell suspension in the channel at dilution of 1:1000 (v/v). After incubating for 30 minutes at 37° C. for staining, the media was gently removed from each channel, and the device could be imaged via Nikon Ci-L fluorescent microscope directly at 10× magnification. The images processing and cell counting under fluorescent staining were done through ImageJ software. For infection analysis imaging, after incubating for 30 minutes with fluorescent dyes and remove the mixture of dyes and media in the channel, the channels were washed with 1×PBS to remove unbound bacteria and treated with 100 μg/mL gentamicin for 2 h to kill the extracellular bacteria, then the device could be imaged directly. […]
# [3] = test system: UMUC-3 bladder cancer cells; test: Cluster size after DNase treatment of coculture (in situ morphology analysis); type: cell-based, human; conditions: 0.01 mg/mL DNase, 9 h of infection
# Method: The clusters formed in the microwell after 24 h culture or infection were imaged via an optical microscope by the device put on the objective directly at 40× or 100× magnification. Each channel was shot at three frames at the top, middle and bottom state. The image processing and analysis of cluster size and density were done through ImageJ software.
# (§1) To dissolve the biofilm, 1×DNase (0.01 mg/mL; Sigma-Aldrich) diluted with fresh antibiotic-free culture media were added into channels after 1 h infection, and the device was continually incubated at 37° C. for 8 h. Then downstream in situ analysis was done after removing DNase and washing channels with PBS. The untreated clusters after 9 h infection were set as control.
# [4] = test system: UMUC-3 bladder cancer cells; test: In situ immunostaining of CD44 and CD24 after DNase treatment; type: cell-based, human; conditions: CT model, 9 h after infection
# Method: The infected cell clusters were firstly washed with 1×PBS gently and treated with 100 μg/mL gentamicin for 2 h to kill extracellular bacteria but keep the intracellular ones. Then channels were loaded PBS with antibody dyes at dilution of […] (v/v). After incubating for 30 minutes at room temperature for staining, the PBS was gently removed from each channel, and the stained clusters could be directly observed through a fluorescent microscope.
# as §1
# [5] = test system: UMUC-3 bladder cancer cells; test: Viability of non-infected cancer cells after DNase or Cipro treatment; type: cell-based, human; conditions: uninfected control; Cipro 24 h
molecule,measurement,setting,value
O=C(O)c1cn(C2CC2)c2cc(N3CCNCC3)c(F)cc2c1=O [ciprofloxacin],MIC,"[1]; Escherichia coli, as printed in Example 7",0.025 µg/mL
same,MIC value,[1]; as printed in legend of FIG. 14C,0.025 µg/mL
COc1cccc2c1C(=O)c1c(O)c3c(c(O)c1C2=O)C[C@@](O)(C(=O)CO)C[C@@H]3O[C@H]1C[C@H](N)[C@H](O)[C@H](C)O1 [doxorubicin],IC50,"[2]; CL model (intratumoral UTI89), read-out: IC50 of doxorubicin on cancer cells with the CL model",1590 nM
same,IC50,"[2]; CT model (extratumoral UTI89), read-out: IC50 of doxorubicin on cancer cells with the CT model",1790 nM
DNase,cancer cell viability in the CT model after biofilm disruption by DNase,"[2]; CT model, 9 h infection, more obvious at MOIs 100:1 and 500:1",increased to a level comparable to that in the CL model
same,cluster size in the CL model after DNase treatment,[3]; CL model,slight increase in cluster size
same,cluster size in the CT model after DNase treatment,[3]; CT model,reverse the effect of cluster size reduction
same,"expression intensity of CD24, DNase-treated vs untreated control",[4],reduced
same,"expression intensity of CD44, DNase-treated vs untreated control",[4],reduced
same,adverse effect on non-infected cancer cells (viability),[5],neither ciprofloxacin nor DNase had adverse effect
